Results published in patent US4835160A, “Derivatives of pyridoindole, having anti-tumor properties” (Sanofi, priority 1986, dated 1989).
Read-outs that look alike come from different tables or passages of the source.

Experiments:
[1] = in vivo; set-up: species or system female CDF1 hybrid mice; conditions: mouse, iv
Description: In addition the administration, to healthy female CDF1 hybrid mice, in a single injection by intravenous route with a perfusor, lasting 4 minutes, of the compounds under test in solution in physiological serum at a rate of 0.1 ml of solution per 10 g weight of the animals has enabled it to be established that the compounds are also well tolerated at a high dosage in these conditions.

[2] = tested on: leukemia tumour line L 1210; assay: In vitro cytotoxic activity on leukemia tumour line L 1210; assay type: cell-based; conditions: L 1210, 48 hours contact, 37° C., read-out: I D 50 (concentration which inhibits the proliferation of the cells by 50%)
Description: (1) In vitro: ([…] et al., Chem. Biol. Interaction, 1979, 25, 45-58). The cytotoxic activity of the compounds of the invention has been evaluated by in vitro tests. These tests consist of adding increasing concentrations of the compound under test to a cellular culture of the leukemia tumour line L 1210 in an exponential phase of growth. The cellules are incubated at 37° C. in a CO2 incubator and counted every 24 hours. The calculation of the I D 50 (concentration of the product, expressed in 1^-1 micromole, which inhibits the proliferation of the cells by 50%) is made after 48 hours contact.

[3] = tested on: leukemia P 388; assay: Test of leukemia P 388; IP/IP, D1-5; assay type: in vivo, CDF1 hybrid mice; conditions: D1-D5; for Number of survivors: day D30; for T/C %: survival time
Description: (2) In vivo: (GERAN et al., Cancer Chemother., 1972, 2, 07-57):
(§1) The antitumour activity was tested in vivo on various tumours inoculated in various ways according to the following general protocol:
(§2) All the male or female mice are inoculated on day D0 with a known quantity of viable tumour cells for ascitic tumours or with a known tumour fragment for solid tumours.
(§3) They are then distributed into various groups. Each group, corresponding to the animals treated by the product under test, is made up of 10 mice. The product under test is dissolved in distilled water and it is administered n times (Dx-Dy), n, y, and x varying according to the protocol chosen, at the rate of 0.1 ml of solution per 10 g by weight of mice treated and at specific doses for each protocol.
(§4) The "negative control" group, corresponding to the animals which are not treated by the product, contains 2√N animals, N being equal to or greater than the total number of mice treated by the product in the same experiment.
(§5) Finally, the tests can also be carried out at the same time as the study of a group called "positive control", of ten animals, which is treated by a molecule, known for its antitumour activity and which can vary according to the protocol chosen, in the same conditions as the groups treated by the product under test.
(§6) The antitumour activity is evaluated, in the case of ascitic tumours, by considering the increase in the survival time of the animals treated in comparison to that of the animals in the "negative control" group, according to the formula: [formula]
The criterion for activity varies according to the protocol.
(§7) Also, a product is considered as toxic at the dose studied when this T/C value is equal to or less than 85%. In addition, a product is also considered as toxic at the dose studied when the weight variation, expressed in grams and calculated by the formula: […]
"Average weight of the group measured on day 5--Average weight of the same group measured on day 1"
is equal to or less than 4 g.
(a) Test of lelukemia P 388; IP/IP, D1-5 (GERAN et al., Cancer Chemother., 1972, 2, 07-57).
(§8) The tests are carried out with CDF1 hybrid mice inoculated by intraperitoneal route with 10^6 leukemia cells from the P 388 line. The compound under test is administered for 5 successive days (D1-D5) by intraperitoneal route. The positive control for the test is 5-fluorouracile which is administered in the same conditions. The number of surviving animals is evaluated on day D30.

[4] = in vivo; set-up: species or system CDF1 hybrid mice; conditions: mouse, ip, 50 mg/kg
Description: The compounds of the invention benefit from a good tolerance and a weak toxicity.
Thus the administration, to healthy CDF1 hybrid mice, in a single injection by intraperitoneal route, of the compounds under test, has enabled it to be established that the product is perfectly tolerated at a high dosage since the survival rate of the animals of the experiment was 100 out of 100 thirteen days after administration.

[5] = tested on: leukemia L 1210; assay: Test for leukemia L 1210 IP/D1 IV; assay type: in vivo, CDF1 hybrid mice; conditions: for Number of survivors: day D60; for T/C %: survival time
Description: as §1, §2, §3, §4, §5, §6, §7
as §8, with “10^5” for “10^6”, “L 1210” for “P 388”, “5” for “5 successive”, “5-fluorouracile” for “5-fluorouracile which is”, “D60.” for “D30.”
(g) Test for leukemia L 1210 IP/D1 IV. (GERAN et al., Cancer Chemother., 1972, 2, 07-57).
The test is carried out according to the same protocol as that described for test (c), the compound under test being administered by intravenous route only on day D1.

[6] = tested on: melanoma B 16; assay: Test for melanoma B 16; assay type: in vivo, BDF1 hybrid mice; conditions: D1-D9; for Number of survivors: day D60; for T/C %: survival time
Description: as §1, §2, §3, §4, §5, §6, §7
(d) Test for melanoma B 16 (GERAN et al., Cancer Chemother., 1972, 2, 07-75).
The tests are carried out with BDF1 hybrid mice inoculated by intraperitoneal route with 0.5 ml of a homogenate of melanoma B 16 made up from 1 g of tumour in 10 ml of physiological serum. The compound under test is administered for 9 days (D1-D9) by intraperitoneal route. The positive control for the test is Cis-Platine administered in the same conditions. The number of surviving animals is evaluated on day D60.

[7] = tested on: colic adenocarcinoma 38; assay: Test for colic adenocarcinoma 38, SC/D2,9 IV; assay type: in vivo, BDF1 hybrid mice; set-up: Average tumour volume at D32: unit not given beside the values; conditions: D2 and D9; for Number of survivors: day D32; for T/C % at D32: tumour volume
Description: as §1, §2, §3, §4
(§9) the antitumour activity is evaluated, in the case of solid tumours, by considering the reduction in the average tumour volume of the treated animals in comparison with the animals of the "negative control" group, according to the formula: [formula]
(§10) A value for T/C of less than 42% indicates an activity for the product at the studied dose.
(§11) The tests are carried out with BDF1 hybrid mice inoculated by subcutaneous route with a standardized tumour fragment of 3 mm^3. The compound under test is administered by intravenous route only on day D1.
(i) Test for colic adenocarcinoma 38, SC/D2,9 IV (GERAN et al., Cancer Chemother., 1972, 2, 07-57).
This test is carried out according to the protocol described for test (h), the compound under test being administered by intravenous route on day D2 then on day D9.
The number of surviving animals is evaluated on day D32.

[8] = tested on: leukemia P 388; assay: Test for leukemia P 388 IP/D1 IV; assay type: in vivo, CDF1 hybrid mice; conditions: for Number of survivors: day D30; for T/C %: survival time
Description: as §1, §2, §3, §4, §5, §6, §7, §8
(f) Test for leukemia P 388 IP/D1 IV (GERAN et al., Cancer Chemother., 1972, 2, 07-57).
The test is carried out according to the same protocol as that described for test (a), the compound under test being administered by intravenous route only on day D1.

[9] = tested on: colic adenocarcinoma 38; assay: Test for colic adenocarcinoma 38, SC/D1 IV; assay type: in vivo, BDF1 hybrid mice; conditions: 50 mg/kg IV
Description: as §1, §2, §3, §4, §9, §10
(h) Test for colic adenocarcinoma 38, SC/D1 IV. (GERAN et al., Cancer Chemother., 1972, 2, 07-57).
as §11
The number of surviving animals is evaluated on day D38.

CCN(CC)CCCNc1ncc(C)c2c1c1cc(O)ccc1n2C [Derivative No. 11, 1-(3-diethylaminopropylamino)-4,5-dimethyl-8-hydroxy-5H-pyrido[4,3-b]indole]
survival at 192 h ([1]; 40 mg/kg): 100%
survival at 192 h ([1]; 50 mg/kg): 100%
IC50 ([2]; Mus musculus, L1210, 48 h): 30 nM
Median day of survival ([3]; 2.5 mg/kg IP): 17.25 days
Variation by weight (g) ([3]; 2.5 mg/kg IP): +1.2 g
Number of survivors ([3]; 2.5 mg/kg IP): 0/10
T/C % ([3]; 2.5 mg/kg IP): 149%
Median day of survival ([3]; 5 mg/kg IP): 19.25 days
Variation by weight (g) ([3]; 5 mg/kg IP): +0.7 g
Number of survivors ([3]; 5 mg/kg IP): 0/10
T/C % ([3]; 5 mg/kg IP): 166%
Median day of survival ([3]; 10 mg/kg IP): 23.75 days
Variation by weight (g) ([3]; 10 mg/kg IP): +0.2 g
Number of survivors ([3]; 10 mg/kg IP): 2/10
T/C % ([3]; 10 mg/kg IP): 205%
Median day of survival ([3]; 20 mg/kg IP): 7.4 days
Variation by weight ([3]; 20 mg/kg IP): -2.8 g
Number of survivors ([3]; 20 mg/kg IP): 0/10
T/C % ([3]; 20 mg/kg IP): 64%
survival at 312 h [4]: 100%
Median day of survival ([5]; 20 mg/kg IV): 11.8 days
Variation by weight ([5]; 20 mg/kg IV): -0.4 g
Number of survivors ([5]; 20 mg/kg IV): 0/10
T/C % ([5]; 20 mg/kg IV): 132%
Median day of survival ([5]; 40 mg/kg IV): 13.3 days
Variation by weight ([5]; 40 mg/kg IV): -0.2 g
Number of survivors ([5]; 40 mg/kg IV): 0/10
T/C % ([5]; 40 mg/kg IV): 149%
Median day of survival ([6]; 1.25 mg/kg IP): 32.25 days
Variation by weight ([6]; 1.25 mg/kg IP): -2.5 g
Number of survivors ([6]; 1.25 mg/kg IP): 0/10
T/C % ([6]; 1.25 mg/kg IP): 133%
Median day of survival ([6]; 2.5 mg/kg IP): 35.25 days
Variation by weight (g) ([6]; 2.5 mg/kg IP): +0.6 g
Number of survivors ([6]; 2.5 mg/kg IP): 0/10
T/C % ([6]; 2.5 mg/kg IP): 145%
Median day of survival ([6]; 5 mg/kg IP): 41.25 days
Variation by weight (g) ([6]; 5 mg/kg IP): +0.2 g
Number of survivors ([6]; 5 mg/kg IP): 3/10
T/C % ([6]; 5 mg/kg IP): 170%
Median day of survival ([6]; 10 mg/kg IP): 19.3 days
Variation by weight ([6]; 10 mg/kg IP): -1.0 g
Number of survivors ([6]; 10 mg/kg IP): 0/10
T/C % ([6]; 10 mg/kg IP): 79%

Cc1cnc(NCCCN(C)C)c2c3cc(O)ccc3n(C)c12 [Derivative No. 15, 4,5-dimethyl 1(3-dimethylaminopropylamino)-8-hydroxy-5H-pyrido[4,3-b]indole]
IC50 [2]: 10 nM
Average tumour volume at D32 ([7]; 25 mg/kg IV): 0.0
Number of survivors ([7]; 25 mg/kg IV): 10/10
T/C % at D32 ([7]; 25 mg/kg IV): 0%
Average tumour volume at D32 ([7]; 50 mg/kg IV): 0.0
Number of survivors ([7]; 50 mg/kg IV): 10/10
T/C % at D32 ([7]; 50 mg/kg IV): 0%
Median day of survival ([3]; 1.25 mg/kg IP): 18.0 days
Variation by weight ([3]; 1.25 mg/kg IP): -1.9 g
Number of survivors ([3]; 1.25 mg/kg IP): 0/10
T/C % ([3]; 1.25 mg/kg IP): 164%
Median day of survival ([3]; 2.5 mg/kg IP): 20.25 days
Variation by weight ([3]; 2.5 mg/kg IP): -1.9 g
Number of survivors ([3]; 2.5 mg/kg IP): 0/10
T/C % ([3]; 2.5 mg/kg IP): 184%
Median day of survival ([3]; 5 mg/kg IP): 26 days
Variation by weight ([3]; 5 mg/kg IP): -2.5 g
Number of survivors ([3]; 5 mg/kg IP): 1/10
T/C % ([3]; 5 mg/kg IP): 236%
Median day of survival ([3]; 10 mg/kg IP): 9.3 days
Variation by weight ([3]; 10 mg/kg IP): -4.1 g
Number of survivors ([3]; 10 mg/kg IP): 0/10
T/C % ([3]; 10 mg/kg IP): 85%
Median day of survival ([8]; 50 mg/kg IV): 17.75 days
Variation by weight (g) ([8]; 50 mg/kg IV): +0.5 g
Number of survivors ([8]; 50 mg/kg IV): 1/10
T/C % ([8]; 50 mg/kg IV): 163%
Median day of survival ([8]; 100 mg/kg IV): 25.75 days
Variation by weight ([8]; 100 mg/kg IV): -0.25 g
Number of survivors ([8]; 100 mg/kg IV): 4/10
T/C % ([8]; 100 mg/kg IV): 236%
Average tumour volume at D38 [9]: 2.73
Number of survivors ([9]; day D38): 10/10
T/C % at D38 ([9]; tumour volume): 30%
